Assays:
[1] = Induction of anti-CD3/CD28 antibodies-stimulated human T cell activation at 0.3 uM assessed fold increase in IL-2 secretion measured by ELISA assay; type: functional, T cell line
[2] = Induction of anti-CD3/CD28 antibodies-stimulated human T cell activation at 1 uM assessed fold increase in CD25 expression measured by ELISA assay; type: functional, T cell line
[3] = biological target: E3 ubiquitin-protein ligase CBL-B (Homo sapiens, UniProt Q13191); assay: Inhibition of N-terminal Avi-tagged human CBL-B (36 to 427 residues) incubated with 60 nM Src kinase for 1.5 hrs followed by incubation with fluorescently labeled UbcH5B-Ub for 1 hr and measured by TR-FRET assay; type: single protein
E3 ubiquitin-protein ligase CBL-B, sequence (Q13191 whole entry, the tested form may be a part): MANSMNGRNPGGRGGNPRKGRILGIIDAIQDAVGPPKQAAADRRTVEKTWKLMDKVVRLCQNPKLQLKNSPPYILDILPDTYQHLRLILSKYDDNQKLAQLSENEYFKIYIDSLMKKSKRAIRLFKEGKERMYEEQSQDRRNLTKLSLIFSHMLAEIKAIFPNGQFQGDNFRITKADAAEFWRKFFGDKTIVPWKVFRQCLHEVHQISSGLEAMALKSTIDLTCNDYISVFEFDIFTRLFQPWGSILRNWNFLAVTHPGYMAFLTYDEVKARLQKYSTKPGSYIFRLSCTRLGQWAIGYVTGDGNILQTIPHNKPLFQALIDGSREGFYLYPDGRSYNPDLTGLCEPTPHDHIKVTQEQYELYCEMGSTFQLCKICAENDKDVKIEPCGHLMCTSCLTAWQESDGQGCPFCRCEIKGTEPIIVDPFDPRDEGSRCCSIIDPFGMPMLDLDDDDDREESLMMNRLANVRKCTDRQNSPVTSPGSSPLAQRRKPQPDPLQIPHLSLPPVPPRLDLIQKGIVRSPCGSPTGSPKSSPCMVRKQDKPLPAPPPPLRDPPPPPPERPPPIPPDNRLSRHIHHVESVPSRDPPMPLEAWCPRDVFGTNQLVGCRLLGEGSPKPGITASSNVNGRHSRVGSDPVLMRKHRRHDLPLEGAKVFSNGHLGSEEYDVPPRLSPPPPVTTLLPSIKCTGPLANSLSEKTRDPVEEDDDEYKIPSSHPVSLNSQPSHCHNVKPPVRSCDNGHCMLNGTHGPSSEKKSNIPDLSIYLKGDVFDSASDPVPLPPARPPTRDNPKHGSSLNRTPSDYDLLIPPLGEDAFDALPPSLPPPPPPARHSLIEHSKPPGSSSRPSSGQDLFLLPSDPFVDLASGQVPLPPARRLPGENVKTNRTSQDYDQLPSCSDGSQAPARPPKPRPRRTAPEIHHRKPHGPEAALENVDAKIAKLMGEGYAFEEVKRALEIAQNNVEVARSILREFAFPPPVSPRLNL

[4] = Induction of anti-CD3 antibodies-stimulated human T cell activation at 1 uM assessed fold increase in CD25 expression measured by ELISA assay; type: functional, T cell line; further: reference of the scale not given here
[5] = Induction of anti-CD3/CD28 antibodies-stimulated human T cell activation at 1 uM assessed fold increase in IL-2 secretion measured by ELISA assay; type: functional, T cell line
[6] = Induction of anti-CD3 antibodies-stimulated human T cell activation at 1 uM assessed fold increase in IL-2 secretion measured by ELISA assay; type: functional, T cell line; further: reference of the scale not given here
[7] = Induction of anti-CD3/CD28 antibodies-stimulated human T cell activation at 0.3 uM assessed fold increase in CD25 expression measured by ELISA assay; type: functional, T cell line

Row | SMILES | IC50 [3] [nM] | fold change (FC) [1] | fold change (FC) [2] | fold change (FC) [4] | fold change (FC) [5] | fold change (FC) [6] | fold change (FC) [7]
1 | C[C@H](Cc1nncn1C)c1cc(C2CCOC2)nc(N2Cc3c(cccc3C(F)(F)F)C2=O)c1 (stereo partly specified) | ≤ 1000 | 1.01 | 1.01 | <=0.6 | 1.01 | <=0.05 | 1.01
2 | CN1C[C@H]2CC[C@@H](C1)N2c1cc(C(=O)Nc2cccc(C3(Cc4nncn4C)COC3)c2)nc(C2CC2)n1 | < 100 | 5 | 1.51 | >=1.001 | >=7.5 | >=0.201 | 1.31
3 | CN1CC2CC(C1)N2c1cc2c(c(C(F)(F)F)c1)CN(c1cccc([C@@](C)(F)C(F)(F)c3nncn3C)c1)C2=O | < 100 | 1.01 | 1.01 | 0.801 | 2.51 | 0.051 | 1.01
4 | Cn1cnnc1CC1(c2cccc(N3Cc4c(cc(C5CN6CCC5CC6)cc4C(F)(F)F)C3=O)c2)COC1 (stereo unspecified) | < 100 | 2.51 | 1.01 | 0.601 | 5 | <=0.05 | 1.01
5 | Cn1cnnc1CC1(c2cccc(NC(=O)c3cc(CN4C[C@@H]5[C@H](C4)C5(F)F)cc(C4CC4)n3)c2)COC1 | < 100 | >=7.5 | 1.31 | >=1.001 | >=7.5 | >=0.201 | 1.31
6 | Cn1cnnc1CC1(c2cccc(N3Cc4c(cc(N5CCN6CCC[C@H]6C5)cc4C(F)(F)F)C3=O)c2)COC1 | < 100 | >=7.5 | >=1.76 | >=1.001 | >=7.5 | >=0.201 | >=1.76
7 | Cn1cnnc1CC1(c2cccc(N3Cc4c(cc(CN5CC[C@H](F)C5)nc4C4CC4)C3=O)c2)COC1 | < 100 | 2.51 | 1.01 | 0.801 | 5 | 0.051 | 1.01
8 | CN1C[C@@H]2C[C@H]1CN2c1cc2c(c(C(F)(F)F)c1)CN(c1cccc(C3(Cc4nncn4C)COC3)c1)C2=O (single isomer, unassigned) | < 100 | >=7.5 | 1.31 | >=1.001 | >=7.5 | >=0.201 | 1.31
9 | Cn1cnnc1CC1(c2cccc(NC(=O)c3cc(OC(F)F)cc(C4CC4)n3)c2)COC1 | < 100 | 5 | 1.01 | >=1.001 | >=7.5 | >=0.201 | 1.01
10 | Cn1cc2c(n1)CCCN2Cc1cc2c(c(C(F)(F)F)c1)CN(c1cccc(C3(Cc4nncn4C)COC3)c1)C2=O | < 100 | 5 | 1.31 | >=1.001 | >=7.5 | >=0.201 | 1.01
11 | CCOc1cc(NC(=O)c2cc(C)nc(C3CC3)n2)cc(C2(Cc3nncn3C)COC2)c1 | < 100 | 2.51 | 1.01 | 0.801 | 5 | 0.051 | 1.01
12 | Cn1cnnc1CC1(c2cccc(N3Cc4c(cc(CN5CCOC6(CCC6)C5)cc4C(F)(F)F)C3=O)c2)COC1 | < 100 | >=7.5 | 1.01 | >=1.001 | >=7.5 | >=0.201 | 1.01
13 | Cn1cnnc1CC1(c2cccc(N3Cc4c(cc(CN5CCCC6CC65)cc4C(F)(F)F)C3=O)c2)COC1 (stereo unspecified) | < 100 | >=7.5 | 1.01 | >=1.001 | >=7.5 | >=0.201 | 1.01

More lines, main results first:

Row | IC50 [3] [nM] | SMILES | fold change (FC) [1] | fold change (FC) [2] | fold change (FC) [4] | fold change (FC) [5] | fold change (FC) [6] | fold change (FC) [7]
14 | < 100 | Cn1cnnc1CC1(c2cccc(N3Cc4c(cc(CN5CC6CC6(C)C5)cc4C(F)(F)F)C3=O)c2)COC1 (stereo unspecified) | >=7.5 | 1.01 | >=1.001 | >=7.5 | >=0.201 | 1.01
15 | < 100 | Cn1cnnc1CC1(c2cccc(N3Cc4c(cc(N5CCOC5=O)cc4C(F)(F)F)C3=O)c2)COC1 | 1.01 | 1.01 | 0.601 | 2.51 | <=0.05 | 1.01
16 | < 100 | Cn1cnnc1CC1(c2cccc(NC(=O)c3[nH]nc4c3OCCC4)c2)COC1 | 1.01 | 1.01 | 0.601 | 1.01 | 0.051 | 1.01
17 | < 100 | Cc1conc1CC1(c2cccc(N3Cc4c(cc(CN5CCC6(CC6)C5)cc4C(F)(F)F)C3=O)c2)COC1 | >=7.5 | 1.31 | >=1.001 | >=7.5 | >=0.201 | 1.31
18 | < 100 | Cn1cnnc1[C@@H](F)C1(c2cccc(N3Cc4c(cc(CN5CCCCC5)cc4C(F)(F)F)C3=O)c2)COC1 | >=7.5 | 1.51 | >=1.001 | >=7.5 | 0.101 | 1.31
19 | < 100 | Cn1cnnc1CC1(c2cccc(N3Cc4c(cc(CN5CCCCC(F)C5)cc4C(F)(F)F)C3=O)c2)COC1 (stereo unspecified) | 5 | 1.31 | >=1.001 | >=7.5 | >=0.201 | 1.31
20 | < 100 | CO[C@@H]1CCN(Cc2cc3c(c(C(F)(F)F)c2)CN(c2cccc(C4(Cc5nncn5C)COC4)c2)C3=O)C[C@@H]1F (relative stereo) | >=7.5 | 1.31 | >=1.001 | >=7.5 | >=0.201 | 1.31
21 | < 100 | Cn1cnnc1CC1(c2cccc(N3Cc4c(cc(CN5Cc6cccnc6C5)cc4C(F)(F)F)C3=O)c2)COC1 | 2.51 | 1.31 | >=1.001 | >=7.5 | >=0.201 | 1.31
22 | < 100 | Cn1cnnc1CC1(c2cccc(N3Cc4c(cc(N5CCNC6(CC6)C5)cc4C(F)(F)F)C3=O)c2)COC1 | >=7.5 | 1.31 | >=1.001 | >=7.5 | 0.101 | 1.31
23 | < 100 | Cc1nc2c(o1)CCN(Cc1cc3c(c(C(F)(F)F)c1)CN(c1cccc(C4(Cc5nncn5C)COC4)c1)C3=O)C2 | 5 | 1.31 | >=1.001 | >=7.5 | >=0.201 | 1.01
24 | < 100 | C[C@H](c1cc2c(c(C(F)(F)F)c1)CN(c1cccc(C3(Cc4nncn4C)COC3)c1)C2=O)N1CCC2(CC1)CC2 | >=7.5 | 1.01 | >=1.001 | >=7.5 | >=0.201 | 1.01
25 | < 100 | Cn1cnnc1CC1(c2cccc(NC(=O)c3cc(CN4CCC4)nc(C4CC4)n3)c2)COC1 | 2.51 | 1.31 | 0.801 | 5 | 0.051 | 1.01
26 | < 100 | C[C@@H]1CN(C)CCN1c1cc2c(c(C(F)(F)F)c1)CN(c1cccc(C3(Cc4nncn4C)COC3)c1)C2=O | 2.51 | 1.31 | >=1.001 | >=7.5 | 0.151 | 1.01
27 | < 100 | Cn1cnnc1[C@H](F)C1(c2cccc(N3Cc4c(cc(CN5CCCC5)cc4C(F)(F)F)C3=O)c2)COC1 | >=7.5 | 1.31 | >=1.001 | >=7.5 | >=0.201 | 1.31
28 | < 100 | COC1CCCN(Cc2cc3c(c(C(F)(F)F)c2)CN(c2cccc(C4(Cc5nncn5C)COC4)c2)C3=O)C1 (stereo unspecified) | >=7.5 | 1.51 | >=1.001 | >=7.5 | >=0.201 | 1.31
